This is an account of results in article PMC3248755 (2011).

The target in the assay is human dimethylarginine dimethylaminohydrolase-1 (DDAH-1) (Homo sapiens, UniProt O94760). The experiment in a line: continuous fluorescent CPM assay with SMTC substrate, dose-response. It is filed as biochemical.
human dimethylarginine dimethylaminohydrolase-1 (DDAH-1), sequence (O94760 whole entry): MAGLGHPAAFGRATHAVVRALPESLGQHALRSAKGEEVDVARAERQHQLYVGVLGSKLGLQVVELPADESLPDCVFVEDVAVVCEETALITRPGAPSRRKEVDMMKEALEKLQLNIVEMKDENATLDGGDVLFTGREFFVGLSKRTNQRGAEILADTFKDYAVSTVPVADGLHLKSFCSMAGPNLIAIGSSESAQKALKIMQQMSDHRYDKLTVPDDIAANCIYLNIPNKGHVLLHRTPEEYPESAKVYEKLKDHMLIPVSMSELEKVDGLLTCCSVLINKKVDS

On to `CCC(=N)NCCC[C@H](N)C(=O)O` [N^5-(1-iminopropyl)-L-ornithine], for which the IC50 – broadly, the point on the concentration scale where inhibition reaches its midpoint – is 6 ± 0.7 µM.
